Experimental data published in ChEMBL document CHEMBL5728730, “Tri-substituted imidazoles for the inhibition of TGF beta and methods of treatment” (2021).
pIC50: −log10 of the molar value.

molecular target: T1, TGF-beta receptor type-1 (Homo sapiens, UniProt P36897); experiment: LanthaScreen™Eu Kinase Binding Assay TGFBR1 (ALK5): Exemplified compounds were screened in 1% DMSO (final concentration) by 3-fold serial dilutions from 10,000 nM to 0.316 nM to produce an IC50 or at single concentrations of 10,000, 1000 and 100 nM according to the following protocol. To low volume, white 384-well plates (Greiner Cat #784207) add 160 nL 100× compound in 100% DMSO, 3.84 uL kinase buffer (50 mM HEPES, pH 7.5, 0.01% BRIJ-35, 10 mM MgCl2, 1 mM EGTA), 8 uL 2× kinase/antibody mixture in kinase buffer (final ALK5 concentration of 5 nM; final Eu-anti-GST antibody concentration of 2 nM), 4 uL 4× Tracer #178 in kinase buffer (final concentration of 5 nM). Gently shake the plates for 30 seconds and incubate at room temperature for 1 hour before reading fluorescence on a plate reader. Percent inhibition was determined compared to DMSO only control (maximal ALK5 tracer binding) and sigmoidal dose response curve fit yielded IC50 values as indicated in Table 2.
T1 sequence (P36897 whole entry): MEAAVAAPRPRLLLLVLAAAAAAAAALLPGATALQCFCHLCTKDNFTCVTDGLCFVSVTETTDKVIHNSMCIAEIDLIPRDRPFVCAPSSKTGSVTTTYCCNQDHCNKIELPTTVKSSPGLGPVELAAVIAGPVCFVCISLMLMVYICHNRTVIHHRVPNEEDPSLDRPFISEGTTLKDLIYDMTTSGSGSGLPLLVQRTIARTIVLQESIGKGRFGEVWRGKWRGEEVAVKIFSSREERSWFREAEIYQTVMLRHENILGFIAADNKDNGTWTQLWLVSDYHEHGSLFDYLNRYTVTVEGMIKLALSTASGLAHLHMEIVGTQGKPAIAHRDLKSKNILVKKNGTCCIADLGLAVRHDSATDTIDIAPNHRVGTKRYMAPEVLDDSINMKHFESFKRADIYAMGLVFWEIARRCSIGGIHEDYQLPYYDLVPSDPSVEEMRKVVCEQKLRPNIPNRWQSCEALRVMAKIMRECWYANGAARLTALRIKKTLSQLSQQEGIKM

pIC50 | Structure (SMILES)
7.33 | CC(C)n1ccc(-c2nc(CNc3cc(F)cc(F)c3)[nH]c2-c2ccc3nccnc3c2)n1
6.86 | CC(C)n1ccc(-c2nc(CNc3cc(F)cc(C#N)c3)[nH]c2-c2ccc3nccnc3c2)n1
> 6.00 | CC(C)n1ccc(-c2nc(-c3ccc(C(N)=O)cc3)[nH]c2-c2ccc3ncnn3c2)n1
